Reference: publication PMC6364417, “Kinase inhibitor library screening identifies synergistic drug combinations effective in sensitive and resistant melanoma cells” (Journal of Experimental & Clinical Cancer Research : CR, 2019)

Tests used:
Experiment in all cases: Kinase inhibitor library screening, PrestoBlue cell viability, 1 or 10 μM, 72 h
[1] = tested on: A375-GP cells (Dabrafenib-resistant); details: A375 GP, 72 h
[2] = tested on: A375-XP cells (Vemurafenib-resistant); details: A375 XP, 72 h
[3] = tested on: IGR37-XP cells (Vemurafenib-resistant); details: IGR37 XP, 72 h; for Cell viability in kinase inhibitor library screening, IGR37 XP, 1μΜ: in %
[4] = tested on: 501Mel-GP cells (Dabrafenib-resistant); details: 501Mel GP, 72 h; for Cell viability in kinase inhibitor library screening, 501Mel GP, 1μΜ / Cell viability in kinase inhibitor library screening, 501Mel GP, 10μΜ: in %
[5] = tested on: 501Mel-XP cells (Vemurafenib-resistant); details: 501Mel XP, 72 h; for Cell viability in kinase inhibitor library screening, 501Mel XP, 1μΜ / Cell viability in kinase inhibitor library screening, 501Mel XP, 10μΜ: in %
[6] = tested on: IGR37 cells (parental); details: IGR37 Parental, 72 h; for Cell viability in kinase inhibitor library screening, IGR37 Parental, 1μΜ / Cell viability in kinase inhibitor library screening, IGR37 Parental, 10μΜ: in %
[7] = tested on: A375 cells (parental); details: A375 Parental, 72 h
[8] = tested on: IGR37-GP cells (Dabrafenib-resistant); details: IGR37 GP, 72 h; for Cell viability in kinase inhibitor library screening, IGR37 GP, 1μΜ: in %
[9] = tested on: 501Mel cells (parental); details: 501Mel Parental, 72 h; for Cell viability in kinase inhibitor library screening, 501Mel Parental, 1μΜ / Cell viability in kinase inhibitor library screening, 501Mel Parental, 10μΜ: in %
Method in brief: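 Two concentrations of every kinase inhibitor were tested on each melanoma line and its resistant counterparts, and cell survival was quantified by PrestoBlue against untreated wells.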

Structure (SMILES)	cell viability (kinase inhibitor library screening) ([1]; 10μΜ)	cell viability (kinase inhibitor library screening) ([2]; 10μΜ)	cell viability (kinase inhibitor library screening) ([3]; 1μΜ)	cell viability (kinase inhibitor library screening) ([3]; 10μΜ)	cell viability (kinase inhibitor library screening) ([4]; 10μΜ)	cell viability (kinase inhibitor library screening) ([5]; 1μΜ)	cell viability (kinase inhibitor library screening) ([5]; 10μΜ)	cell viability (kinase inhibitor library screening) ([6]; 1μΜ)	cell viability (kinase inhibitor library screening) ([6]; 10μΜ)	cell viability (kinase inhibitor library screening) ([7]; 10μΜ)	cell viability (kinase inhibitor library screening) ([8]; 1μΜ)	cell viability (kinase inhibitor library screening) ([8]; 10μΜ)	cell viability (kinase inhibitor library screening) ([9]; 1μΜ)	cell viability (kinase inhibitor library screening) ([9]; 10μΜ)	Cell viability in kinase inhibitor library screening, A375 GP, 1μΜ ([1]; 1μΜ)	Cell viability in kinase inhibitor library screening, A375 GP, 10μΜ ([1]; 10μΜ)	Cell viability in kinase inhibitor library screening, A375 XP, 1μΜ ([2]; 1μΜ)	Cell viability in kinase inhibitor library screening, A375 XP, 10μΜ ([2]; 10μΜ)	Cell viability in kinase inhibitor library screening, IGR37 XP, 10μΜ ([3]; 10μΜ)	Cell viability in kinase inhibitor library screening, IGR37 XP, 1μΜ ([3]; 1μΜ)	other results
COc1cc2c(Oc3ccc(NC(=O)C4(C(=O)Nc5ccc(F)cc5)CC4)cc3F)ccnc2cc1OCCCN1CCOCC1 [Foretinib (GSK1363089, XL880)]	0.464%	0.7%	81.8%	0.556%	-0.6%	47.0%	-0.9%	85.9%	0.2%	0.654%	91.3%	0.8%	84.1%	0.153%	–	–	–	–	–	–	cell viability (kinase inhibitor library screening) ([1]; 1μΜ): 67.2%; cell viability (kinase inhibitor library screening) ([2]; 1μΜ): 75.2%; cell viability (kinase inhibitor library screening) ([4]; 1μΜ): 64.6%; cell viability (kinase inhibitor library screening) ([7]; 1μΜ): 71.0%
CC(C)NC[C@@H](C(=O)N1CCN(c2ncnc3c2[C@H](C)C[C@H]3O)CC1)c1ccc(Cl)cc1 [GDC-0068]	79.9%	85.5%	95.3%	23.8%	56.7%	85.0%	36.9%	102.7%	90.8%	77.7%	97.0%	79.0%	103.4%	81.6%	–	–	–	–	–	–	cell viability (kinase inhibitor library screening) ([4]; 1μΜ): 92.7%; cell viability (kinase inhibitor library screening) ([7]; 1μΜ): 104.3%
OCCn1cc(-c2ccc3c(c2)CC/C3=N\O)c(-c2ccncc2)n1 [GDC-0879]	–	–	–	–	–	–	–	–	–	–	–	–	–	–	85.8	44.0	91.2	47.1	60.4%	110.2	Cell viability in kinase inhibitor library screening, 501Mel GP, 1μΜ ([4]; 1μΜ): 108.3; Cell viability in kinase inhibitor library screening, 501Mel GP, 10μΜ ([4]; 10μΜ): 94.0; Cell viability in kinase inhibitor library screening, 501Mel XP, 1μΜ ([5]; 1μΜ): 97.9; Cell viability in kinase inhibitor library screening, 501Mel XP, 10μΜ ([5]; 10μΜ): 89.8; Cell viability in kinase inhibitor library screening, IGR37 Parental, 1μΜ ([6]; 1μΜ): 66.4; Cell viability in kinase inhibitor library screening, IGR37 Parental, 10μΜ ([6]; 10μΜ): 27.4; Cell viability in kinase inhibitor library screening, A375 Parental, 10μΜ ([7]; 10μΜ): 28.9; Cell viability in kinase inhibitor library screening, A375 Parental, 1μΜ ([7]; 1μΜ): 49.6; Cell viability in kinase inhibitor library screening, IGR37 GP, 10μΜ ([8]; 10μΜ): 88.9%; Cell viability in kinase inhibitor library screening, IGR37 GP, 1μΜ ([8]; 1μΜ): 99.1; Cell viability in kinase inhibitor library screening, 501Mel Parental, 1μΜ ([9]; 1μΜ): 79.0; Cell viability in kinase inhibitor library screening, 501Mel Parental, 10μΜ ([9]; 10μΜ): 63.5
Cc1c(CN2CCN(C(=O)[C@H](C)O)CC2)sc2c(N3CCOCC3)nc(-c3cnc(N)nc3)nc12 [GDC-0980 (RG7422)]	–	–	–	–	–	–	–	–	–	–	–	–	–	–	33.1	4.0	31.2	3.3	1.5%	21.6	Cell viability in kinase inhibitor library screening, 501Mel GP, 1μΜ ([4]; 1μΜ): 21.4; Cell viability in kinase inhibitor library screening, 501Mel GP, 10μΜ ([4]; 10μΜ): 5.1; Cell viability in kinase inhibitor library screening, 501Mel XP, 1μΜ ([5]; 1μΜ): 15.9; Cell viability in kinase inhibitor library screening, 501Mel XP, 10μΜ ([5]; 10μΜ): 0.8; Cell viability in kinase inhibitor library screening, IGR37 Parental, 1μΜ ([6]; 1μΜ): 35.3; Cell viability in kinase inhibitor library screening, IGR37 Parental, 10μΜ ([6]; 10μΜ): 2.0; Cell viability in kinase inhibitor library screening, A375 Parental, 10μΜ ([7]; 10μΜ): 2.2; Cell viability in kinase inhibitor library screening, A375 Parental, 1μΜ ([7]; 1μΜ): 22.3; Cell viability in kinase inhibitor library screening, IGR37 GP, 10μΜ ([8]; 10μΜ): 2.9%; Cell viability in kinase inhibitor library screening, IGR37 GP, 1μΜ ([8]; 1μΜ): 58.6; Cell viability in kinase inhibitor library screening, 501Mel Parental, 1μΜ ([9]; 1μΜ): 19.3; Cell viability in kinase inhibitor library screening, 501Mel Parental, 10μΜ ([9]; 10μΜ): 1.0
C[C@@H](Oc1cc(-n2cnc3ccc(CN4CCN(C)CC4)cc32)sc1C(N)=O)c1ccccc1C(F)(F)F [GSK461364]	–	–	–	–	–	–	–	–	–	–	–	–	–	–	12.0	26.2	26.8	31.7	28.5%	70.5	Cell viability in kinase inhibitor library screening, 501Mel GP, 1μΜ ([4]; 1μΜ): 14.1; Cell viability in kinase inhibitor library screening, 501Mel GP, 10μΜ ([4]; 10μΜ): 31.3; Cell viability in kinase inhibitor library screening, 501Mel XP, 1μΜ ([5]; 1μΜ): 8.8; Cell viability in kinase inhibitor library screening, 501Mel XP, 10μΜ ([5]; 10μΜ): 5.4; Cell viability in kinase inhibitor library screening, IGR37 Parental, 1μΜ ([6]; 1μΜ): 29.0; Cell viability in kinase inhibitor library screening, IGR37 Parental, 10μΜ ([6]; 10μΜ): 57.5; Cell viability in kinase inhibitor library screening, A375 Parental, 10μΜ ([7]; 10μΜ): 29.0; Cell viability in kinase inhibitor library screening, A375 Parental, 1μΜ ([7]; 1μΜ): 8.9; Cell viability in kinase inhibitor library screening, IGR37 GP, 10μΜ ([8]; 10μΜ): 69.3%; Cell viability in kinase inhibitor library screening, IGR37 GP, 1μΜ ([8]; 1μΜ): 91.5; Cell viability in kinase inhibitor library screening, 501Mel Parental, 1μΜ ([9]; 1μΜ): 18.0; Cell viability in kinase inhibitor library screening, 501Mel Parental, 10μΜ ([9]; 10μΜ): 16.7
CCn1c(-c2nonc2N)nc2c(C#CC(C)(C)O)ncc(OC[C@H]3CCCNC3)c21 [GSK690693]	92.8%	87.9%	94.0%	18.7%	33.9%	66.4%	17.0%	104.5%	68.7%	99.2%	93.2%	65.9%	87.0%	43.2%	–	–	–	–	–	–	cell viability (kinase inhibitor library screening) ([1]; 1μΜ): 99.1%; cell viability (kinase inhibitor library screening) ([2]; 1μΜ): 96.1%; cell viability (kinase inhibitor library screening) ([4]; 1μΜ): 87.1%
O=C1NC(=O)/C(=C/c2ccc3nccc(-c4ccncc4)c3c2)S1 [GSK1059615]	–	–	–	–	–	–	–	–	–	–	–	–	–	–	59.6	4.2	54.8	3.7	2.2%	58.7	Cell viability in kinase inhibitor library screening, 501Mel GP, 1μΜ ([4]; 1μΜ): 45.2; Cell viability in kinase inhibitor library screening, 501Mel GP, 10μΜ ([4]; 10μΜ): 1.5; Cell viability in kinase inhibitor library screening, 501Mel XP, 1μΜ ([5]; 1μΜ): 43.3; Cell viability in kinase inhibitor library screening, 501Mel XP, 10μΜ ([5]; 10μΜ): 0.262; Cell viability in kinase inhibitor library screening, IGR37 Parental, 1μΜ ([6]; 1μΜ): 82.5; Cell viability in kinase inhibitor library screening, IGR37 Parental, 10μΜ ([6]; 10μΜ): 4.7; Cell viability in kinase inhibitor library screening, A375 Parental, 10μΜ ([7]; 10μΜ): 4.4; Cell viability in kinase inhibitor library screening, A375 Parental, 1μΜ ([7]; 1μΜ): 62.0; Cell viability in kinase inhibitor library screening, IGR37 GP, 10μΜ ([8]; 10μΜ): 6.4%; Cell viability in kinase inhibitor library screening, IGR37 GP, 1μΜ ([8]; 1μΜ): 75.2; Cell viability in kinase inhibitor library screening, 501Mel Parental, 1μΜ ([9]; 1μΜ): 65.3; Cell viability in kinase inhibitor library screening, 501Mel Parental, 10μΜ ([9]; 10μΜ): 1.4
CCn1cc(-c2ccnc3[nH]c(-c4cccc(CN(C)C)c4)cc23)c(-c2ccc(NC(=O)N(C)C)cc2)n1 [GSK1070916]	34.9%	37.9%	88.9%	7.5%	50.8%	90.5%	18.1%	94.1%	85.3%	36.0%	98.0%	46.1%	94.0%	36.8%	–	–	–	–	–	–	cell viability (kinase inhibitor library screening) ([1]; 1μΜ): 47.6%; cell viability (kinase inhibitor library screening) ([2]; 1μΜ): 57.6%; cell viability (kinase inhibitor library screening) ([7]; 1μΜ): 53.8%
